Source: the NIST ThermoML archive (doi:10.1016/j.jct.2013.05.012)
± gives the expanded uncertainty stated by the source.

Key:
[1] = wn = mass fraction of the nth substance listed; conditions: 101 kPa, Liquid; for mass density: Pycnometric method; for viscosity: Capillary tube (Ostwald / Ubbelohde) method; for speed of sound: variable-path interferometer
[2] = mn = molality of the nth substance listed, in mol/kg; conditions: 101 kPa, Liquid, variable-path interferometer
[3] = 101 kPa, Liquid, Linear variable-path acoustic interferometer

OC[C@H]1O[C@@](CO)(O[C@H]2O[C@H](CO)[C@@H](O)[C@H](O)[C@H]2O)[C@@H](O)[C@@H]1O [D-sucrose] + O
[1]
Conditions | mass density [kg/m3] | speed of sound [m/s] | viscosity [mPa·s]
293.15 K, w1 = 0.05 | 1018.91 ± 0.27 | – | –
293.15 K, w1 = 0.1 | 1039.28 ± 0.27 | – | –
293.15 K, w1 = 0.15 | 1060.31 ± 0.28 | – | –
293.15 K, w1 = 0.2 | 1082.73 ± 0.29 | – | –
298.15 K, w1 = 0.05 | 1017.19 ± 0.28 | 1516.5 ± 1.6 | 1.011 ± 0.021
298.15 K, w1 = 0.1 | 1037.45 ± 0.28 | 1531.8 ± 1.6 | 1.183 ± 0.025
298.15 K, w1 = 0.15 | 1058.49 ± 0.29 | 1543.6 ± 1.6 | 1.418 ± 0.029
298.15 K, w1 = 0.2 | 1080.77 ± 0.3 | 1555.3 ± 1.6 | 1.756 ± 0.036
303.15 K, w1 = 0.05 | 1015.45 ± 0.29 | 1526.6 ± 1.6 | 0.9129 ± 0.019
303.15 K, w1 = 0.1 | 1035.61 ± 0.3 | 1541.8 ± 1.6 | 1.061 ± 0.022
303.15 K, w1 = 0.15 | 1056.67 ± 0.3 | 1553 ± 1.6 | 1.252 ± 0.026
303.15 K, w1 = 0.2 | 1078.8 ± 0.31 | 1564.6 ± 1.6 | 1.549 ± 0.032
308.15 K, w1 = 0.05 | 1013.72 ± 0.3 | 1537.8 ± 1.6 | 0.8285 ± 0.017
308.15 K, w1 = 0.1 | 1033.76 ± 0.31 | 1551.6 ± 1.6 | 0.9614 ± 0.02
308.15 K, w1 = 0.15 | 1054.84 ± 0.31 | 1562 ± 1.6 | 1.129 ± 0.024
308.15 K, w1 = 0.2 | 1076.84 ± 0.32 | 1575.2 ± 1.7 | 1.396 ± 0.029
313.15 K, w1 = 0.05 | 1011.98 ± 0.31 | 1547.7 ± 1.6 | 0.7457 ± 0.016
313.15 K, w1 = 0.1 | 1031.93 ± 0.32 | 1561.8 ± 1.6 | 0.8804 ± 0.018
313.15 K, w1 = 0.15 | 1053.01 ± 0.32 | 1570.8 ± 1.6 | 1.025 ± 0.021
313.15 K, w1 = 0.2 | 1074.88 ± 0.33 | 1583.9 ± 1.7 | 1.25 ± 0.026
318.15 K, w1 = 0.05 | 1010.23 ± 0.32 | 1557.2 ± 1.6 | 0.6946 ± 0.015
318.15 K, w1 = 0.1 | 1030.09 ± 0.33 | 1570.9 ± 1.6 | 0.8179 ± 0.017
318.15 K, w1 = 0.15 | 1051.2 ± 0.34 | 1579.2 ± 1.7 | 0.9402 ± 0.02
318.15 K, w1 = 0.2 | 1072.93 ± 0.34 | 1592.8 ± 1.7 | 1.15 ± 0.024

C[C@@H](O)[C@H](N)C(=O)O [L-threonine] + O
speed of sound [m/s], [2]
Conditions | m1 = 0.0249 | m1 = 0.0498 | m1 = 0.0749 | m1 = 0.0999 | m1 = 0.125 | m1 = 0.1499 | m1 = 0.1749 | m1 = 0.1999
298.15 K | 1501.1 ± 1.6 | 1505.5 ± 1.6 | 1510.2 ± 1.6 | 1515.2 ± 1.6 | 1520.5 ± 1.6 | 1526.1 ± 1.6 | 1531.9 ± 1.6 | 1538.1 ± 1.6
303.15 K | 1512.5 ± 1.6 | 1516.9 ± 1.6 | 1521.6 ± 1.6 | 1526.5 ± 1.6 | 1531.7 ± 1.6 | 1537.3 ± 1.6 | 1543.2 ± 1.6 | 1549.4 ± 1.6
308.15 K | 1523.8 ± 1.6 | 1528.1 ± 1.6 | 1532.7 ± 1.6 | 1537.5 ± 1.6 | 1542.7 ± 1.6 | 1548.2 ± 1.6 | 1553.9 ± 1.6 | 1560.1 ± 1.6
313.15 K | 1530.7 ± 1.6 | 1534.9 ± 1.6 | 1539.4 ± 1.6 | 1544.1 ± 1.6 | 1549.2 ± 1.6 | 1554.5 ± 1.6 | 1560.2 ± 1.6 | 1566.1 ± 1.6
318.15 K | 1536.8 ± 1.6 | 1540.9 ± 1.6 | 1545.2 ± 1.6 | 1549.8 ± 1.6 | 1554.8 ± 1.6 | 1560 ± 1.6 | 1565.5 ± 1.6 | 1571.3 ± 1.6

O [water]
[3]
Conditions | speed of sound [m/s]
303.15 K | 1508.4 ± 1.6
313.15 K | 1526.8 ± 1.6
318.15 K | 1533 ± 1.6
